From patent US9856234B2, “Heterocyclic compounds and their use as glycogen synthase kinase 3 inhibitors” (ABBVIE INC., priority 2006, dated 2018)

Target: T1, human Glycogen Synthase Kinase-3 beta (hGSK-3β) (Homo sapiens, UniProt P49841)
T1 construct: purchased Upstate cell signaling solutions
Assay: Biochemical hGSK-3Beta assay (33P-ATP phosphorylation of biotinylated peptide substrate)
Conditions: 10 μM ATP, 30 minutes at room temperature; read-out: GSK-3β IC50
Description: Methods—Biochemical hGSK-3Beta Assay
Compounds were tested for their ability to inhibit human Glycogen Synthase Kinase-3 beta (hGSK-3β) to phosphorylate biotin-[…](pS)EDEEE. Compounds were incubated with 0.5 μCi 33P-ATP, 10 μM ATP, 0.0125 U hGSK-3β (Upstate cell signaling solutions) and 1 μM substrate (biotin-[…](pS)EDEEE) in 50 mM HEPES, 10 mM MgCl2, […], 1 mM DTT, 0.0075% Triton, 2% DMSO (total volume 50 μL) for 30 minutes at room temperature. The incubation was stopped by addition of an equal volume of 100 mM EDTA, 4M NaCl. 80 μL of this mixture was added to streptavidin-coated Flashplates (PerkinElmer). Following a wash step, 33P incorporation was quantified on a MicroBeta microplate liquid scintillation counter (Perkin Elmer). IC50's were determined by fitting a sigmoidal dose-response curve to the counts obtained at the different concentrations in Graph Pad Prism.

T1 sequence (P49841 whole entry): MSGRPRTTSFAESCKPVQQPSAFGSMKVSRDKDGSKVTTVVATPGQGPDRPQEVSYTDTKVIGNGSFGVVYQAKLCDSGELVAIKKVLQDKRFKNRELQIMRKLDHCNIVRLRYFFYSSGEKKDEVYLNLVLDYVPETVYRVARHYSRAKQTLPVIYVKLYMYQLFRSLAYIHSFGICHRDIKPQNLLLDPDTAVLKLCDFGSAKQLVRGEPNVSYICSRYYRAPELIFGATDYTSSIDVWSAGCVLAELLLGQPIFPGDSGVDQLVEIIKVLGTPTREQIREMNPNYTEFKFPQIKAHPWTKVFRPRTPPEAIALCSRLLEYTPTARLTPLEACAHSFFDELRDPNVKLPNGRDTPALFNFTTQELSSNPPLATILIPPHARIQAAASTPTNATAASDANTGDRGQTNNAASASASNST

Compound	IC50
O=C(Nc1cnccn1)Nc1cncc2ccccc12 [Example 6, 1-Isoquinolin-4-yl-3-pyrazin-2-yl-urea]	0.1 to 10 µM
O=C(Nc1cnccn1)Nc1cccc2ncccc12 [Example 21, 1-Pyrazin-2-yl-3-quinolin-5-yl-urea]	0.1 to 10 µM
O=C(Nc1ccccc1)Nc1ccnc2ccccc12 [Example 30, 1-Phenyl-3-(quinolin-4-yl)urea, reference compound]	> 10 µM
O=C(Nc1cnccn1)Nc1cccc2cnccc12 [Example 20, 1-Isoquinolin-5-yl-3-pyrazin-2-yl-urea]	0.1 to 10 µM
O=C(Nc1cnc2ccccc2c1)Nc1cnccn1 [Example 40, 1-(Pyrazin-2-yl)-3-(quinolin-3-yl)urea, reference compound]	> 10 µM
Cc1cc(NC(=O)Nc2cnccn2)c2ccccc2n1 [Example 12, 1-(2-Methyl-quinolin-4-yl)-3-pyrazin-2-yl-urea]	0.1 to 10 µM
O=C(Nc1ccccn1)Nc1ccnc2cc(C(F)(F)F)ccc12 [Example 29, 1-(Pyridin-2-yl)-3-(7-(trifluoromethyl)quinolin-4-yl)urea]	0.1 to 10 µM
O=C(Nc1cnccn1)Nc1c2c(nc3ccccc13)CCCC2 [Example 5, 1-Pyrazin-2-yl-3-(1,2,3,4-tetrahydro-acridin-9-yl)-urea]	0.1 to 10 µM
O=C(Nc1cnccn1)Nc1c(Br)cnc2ccccc12 [Example 35, 1-(3-Bromoquinolin-4-yl)-3-(pyrazin-2-yl)urea]	0.1 to 10 µM
1-(8-Bromoquinolin-4-yl)-3-(pyrazin-2-yl)urea [Example 37]	< 0.1 µM
1-(Pyrazin-2-yl)-3-(pyridin-4-yl)urea [Example 24]	0.1 to 10 µM
1-Methyl-1-pyrazin-2-yl-3-(6-trifluoromethyl-quinolin-4-yl)-urea [Example 22]	> 10 µM
O=C(Nc1cnccn1)Nc1cccc2ccccc12 [Example 7, 1-Naphthalen-1-yl-3-pyrazin-2-yl-urea]	> 10 µM

Other lines, results leading:

IC50	Compound
< 0.1 µM	Cc1cccc2c(NC(=O)Nc3cnccn3)ccnc12 [Example 31, 1-(8-Methylquinolin-4-yl)-3-(Pyrazin-2-yl)urea]
0.1 to 10 µM	O=C(Nc1cnccn1)Nc1cccc2ccncc12 [Example 19, 1-Isoquinolin-8-yl-3-pyrazin-2-yl-urea]
0.1 to 10 µM	O=C(Nc1cnccn1)Nc1cc(C(F)(F)F)nc2ccccc12 [Example 1, 1-Pyrazin-2-yl-3-(2-trifluoromethyl-quinolin-4-yl)-urea]
< 0.1 µM	O=C(Nc1cnccn1)Nc1ccnc2ccc(Br)cc12 [Example 2, 1-(6-Bromo-quinolin-4-yl)-3-pyrazin-2-yl-urea]
< 0.1 µM	O=C(Nc1cnccn1)Nc1ccnc2c(I)cccc12 [Example 34, 1-(8-Iodoquinolin-4-yl)-3-(pyrazin-2-yl)urea]
< 0.1 µM	O=C(Nc1cnccn1)Nc1ccnc2c(Cl)cccc12 [Example 32, 1-(8-Chloroquinolin-4-yl)-3-(pyrazin-2-yl)urea]
< 0.1 µM	1-(7-Bromoquinolin-4-yl)-3-(pyrazin-2-yl)urea [Example 28]
< 0.1 µM	O=C(Nc1cnccn1)Nc1ccnc2cc(I)ccc12 [Example 27, 1-(7-Iodoquinolin-4-yl)-3-(pyrazin-2-yl)urea]
